This is an account of results in patent publication US9464291B2, “Methods and compositions for the treatment of cancer” (University of South Alabama, priority 2012, dated 2016).

Entries after “also recorded” stand apart in the source; their conditions may differ.

The subject of one assay is c-jun. Put plainly: c-jun mRNA (semi-quantitative PCR) and protein (Western blot) in A2780-CP70 cells. Format: cell-based, human. The protocol: Controls included α-tubulin and histone deacetylase 3. C-jun antibody recognizes non-phosphorylated c-jun protein.
c-jun and c-fos mRNA expression was examined in A2780-CP70 cells transfected with anti-GLI1 shRNA construct at 6 hr, 24 hr, 48 hr, and 72 hr post-transfection using semi-quantative PCR analysis (FIG. 41).
A2780-CP70 cells were transfected with an IC50 dose of anti-Gli1 shRNA (treated) construct or vector (control). Total intracellular c-jun mRNA and c-jun protein was measured at 6 hr, 24 hr, 48 hr, and 72 hr.
C-jun mRNA and protein levels were further examined in cisplatin-resistant A2780-CP70 cells treated with an IC50 dose of anti-Gli1 shRNA. FIG. 78 depicts mRNA levels (panel A) and protein levels (panel B) in cells at 6, 24, 48, and 72 hours post-treatment.
Background: Immunoblotting shows a protein as a band on a membrane.

The next assay relates to ERCC1, XPD, XRCC1. Kind of assay: ERCC1, XPD, XRCC1 mRNA / protein levels in A2780-CP70 cells. The settings on record: A2780-CP70. Format: cell-based, human.
Assay [1] deals with c-jun (Ser 63, Ser 73, Thr 91, Thr 93). Kind of assay: c-jun protein phosphorylation, Western blot, A2780-CP70 cells. Format: cell-based, human. The settings on record: 72 hr observation. How it is done: Protein levels for c-jun, c-fos, phosphorylated c-jun (Ser 63), phosphorylated c-jun (Ser 73), and phosphorylated c-jun (Thr 91, Thr 93) were tested in cytosolic, nuclear, and whole cell fractions at 0 hr, 6 hr, 24 hr, 48 hr, and 72 hr. Internal controls for cytosolic and nuclear fractions included α-tubulin and histone deacetylase 3.
Phosphorylation of c-jun in A2780-CP70 cells transfected with anti-GLI1 shRNA construct was assessed using Western blot analysis. Protein levels for c-jun, phosphorylated c-jun (Ser 63), phosphorylated c-jun (Ser 73), and phosphorylated c-jun (Thr 91, Thr 93) were examined at 0 hr, 6 hr, 24 hr, 48 hr, and 72 hr.
A2780-CP70 cells were treated with an IC50 dose of cisplatin and an IC50 dose of anti-Gli1 shRNA.

The next assay concerns OPN. Kind of assay: OPN expression in pre-osteoclastic RAW264.7 cells. Format: cell-based, murine. How it is done:
Western Blotting Analysis—Whole cell lysates were collected in NP-40 buffer (150 mM NaCl, 50 mM Tris, 1% NP-40). Total protein (30 μg) was resolved by SDS-PAGE gel and transferred to PVDF membranes. Membranes were immunoblotted overnight at 4° C. with antibodies to either SHH (Santacruz, Calif., USA) or IHH (Santacruz). Equal loading was confirmed with anti-β-tubulin (Cell Signaling, Danvers, Mass.). To assess OPN expression upon SHH treatment, […] were grown in 6-well plates in the presence of SHH. After 24 hours the cells were lysed in NP-40 buffer and 30 μg of each experimental group assessed by immunoblotting. To assess for the expression of OPN, MMP9 and CTSK, at the end of Day 6 of differentiation, all the different experimental groups were kept in serum free medium for 24 hrs and both, the conditioned media and whole cell lysates were collected and immunoblotted using antibodies to either anti-mouse OPN (Millipore, Bedford, Mass.), or CTSK (SantaCruz Biotech). Equal loading was confirmed with anti-β-actin (Sigma) antibody. Secreted MMP9 (Santa Cruz Biotech) was assessed by loading equal quantity of protein from the serum-free conditioned medium. […] Detection and quantification of proteins was done using Fuji LAS 3000 apparatus and Multigauge V3.1 software (Fujifilm, Valhalla, N.Y.). Band intensities were measured in arbitrary Units (AU). […]
Luciferase Assay—Cells were co-transfected with the OPN promoter construct, pGL3-OPNB and pSV-β-galactosidase (Promega) (Das, S., et al. (2009) J Biol Chem 284, 22888-22897). […] Readings were normalized to β-galactosidase. […]
Quantitative RT-PCR (qRT-PCR)-cDNA was generated using High Capacity Reverse Transcriptase Kit (Applied Biosystems, Foster City, Calif.). […] Following the experimental regime as described herein (for Osteoclast differentiation/activity) RNA was isolated using Trizol (Invitrogen) and assessed as describere herein. […]

For the next assay, the system named is RAW264.7 cells. Kind of assay: Osteoclast resorption activity, OAAS plates. It is filed as cell-based, murine. The settings on record: DM supplemented with SHH (100 nM) or OPN (100 ng/ml). How it is done: Osteoclast differentiation and activity assays—Tartarate-resistant acid phosphatase (TRAP) assay was conducted for RAW 264.7 following the manufacturer's protocol (Sigma, St. Louis, Mo.). This assay was indicative of the extent of differentiation. OAAS plates (Osteogenic Core Technologies, Choongnam, Republic of Korea) were utilized to measure osteoclastic activity. RAW 264.7 cells (25×103) were inoculated in 48-well plates. Cells were treated with serum-free conditioned media from breast cancer cells or 100 nM SHH or 100 ng/ml OPN on the following day. Media was changed every two days and the experiments were terminated either on day 6 (day 7 for knockdown experiments, with transfections being done on the sixth day). At the completion, cells were detached with 5% sodium hypochlorite and the wells were observed under a Nikon Eclipse TS 100 microscope at 10× magnification. […] The percentage of area resorbed was calculated using the NIS-Elements BR. 3.1 software.

Regarding `CC1=C2C[C@H]3[C@@H](CC=C4C[C@@H](O)CC[C@@]43C)[C@@H]2CC[C@]12O[C@@H]1C[C@H](C)CN[C@H]1[C@H]2C` [cyclopamine], the “c-jun mRNA increase” value in the assay with c-jun (70 μM cyclopamine, 6 hr vs 0 hr) is given as 3 fold. For the same molecule, the “c-jun mRNA increase (peak)” value in the assay with c-jun (70 μM cyclopamine, 24 hr vs 0 hr) is 13 fold. The “time of peak c-jun level” value in the assay on c-jun (A2780-CP70, IC50 dose of agent) was “about 48 hours”. Besides, in the assay on ERCC1, XPD, XRCC1 (IC50 cyclopamine 24 hours, then 30 μM cisplatin 1 hour (data not shown)), the “ERCC1, XPD, XRCC1 mRNA upregulation over baseline” value is listed as “approximately 2 fold”. Moreover, the “time of highest ERCC1, XPD, XRCC1 mRNA levels after cisplatin exposure” value in the assay with ERCC1, XPD, XRCC1 (cyclopamine pretreatment vs cisplatin alone) worked out at 24 h. Besides, in the assay on ERCC1, XPD, XRCC1 (levels associated with 50% cell killing, 6-72 hr), the “ERCC1, XPD, XRCC1 mRNA levels after agent alone” value is given as “no increase; also recorded: no detected effect”. In assay [1], the “c-jun phosphorylation at Ser63” value was “no phosphorylation occurred at Ser63; also recorded: no substantial expression was detected; also recorded: not observed” and the “c-jun phosphorylation at Thr91/93” value is reported as “peak levels at 6 hr”.
For the molecule “SHH: recombinant Sonic hedgehog ligand (R & D Systems)”, the OPN protein levels entry in the assay with OPN (24 hours post SHH) is reported as “increased protein levels of OPN”. Further, the OPN promoter activity result with OPN (24 hours post-SHH) is “increase in the activity of the OPN promoter”. For the same molecule, the “OPN mRNA levels” value with OPN (recombinant SHH) is on record as “dose-dependent significant (p<0.0001) increase in OPN mRNA levels”. Also, the “osteoclast activity (area resorbed)” value with RAW264.7 cells was “notably enhances (p<0.001) osteoclast activity”.
